For 38 molecules, IC50 and IC90 results are on record in ChEMBL document CHEMBL4483862, “Open-source discovery of chemical leads for next-generation chemoprotective antimalarials” (2018).

Some results are limits rather than exact numbers.

The test relates to Plasmodium berghei. Put plainly: Luciferase/luciferin-expressing antifolate-resistant parasites were used to infect a culture of HepG2 cells that were pre-incubated with compounds. Infected hepatocytes emit light due to the luciferase reaction. Assay results are presented as the percent inhibition of light emission compared to control. […]. It counts as functional. To be noted: sporozoite; for IC90: read-out: LUCIFERASE INFECTION ASSAY - IC90.

Where [1] appears, read: read-out: LUCIFERASE INFECTION ASSAY - IC50.

Take `CC(C)(C)c1ccc(Oc2ccc(/C=C/C(=O)c3ccc(NC4=NCCCS4)cc3)cc2[N+](=O)[O-])cc1`: the IC90 was greater than 10 µM. Besides, for the setting “PBLUC_HILL_SLOPE 13, PBLUC_R_SQUARED 0.461, read-out: LUCIFERASE INFECTION ASSAY - IC50”, the 50% inhibitory concentration (IC50) turned out to be 8.77 µM.

For the molecule `c1ccc(NCc2ccc(-c3cn4c(-c5ccncc5)cnc4cn3)cc2)cc1`, the IC90 was greater than 8.74 µM. In addition, the IC50 under setting [1] is greater than 8.74 µM.

Consider `Cc1ccc2c(Cl)cc(Cl)c(OCN3C(=O)c4ccccc4C3=O)c2n1`, for which the 90% effect concentration (IC90) was found to be 5.83 µM. For the same molecule, the IC50 (PBLUC_HILL_SLOPE 5.8, PBLUC_R_SQUARED 0.551, read-out: LUCIFERASE INFECTION ASSAY - IC50) stood at 3.99 µM.

Consider `Clc1ccccc1OCc1nnc(SCc2csc(-c3ccccc3)n2)o1`, for which the concentration for an effect of 90% (IC90) was greater than 10 µM. For the same molecule, the half-inhibitory concentration (IC50) under setting [1] was greater than 10 µM.

With `COc1ccc(-c2cs/c(=N\c3ccccc3C(F)(F)F)n2/N=C/c2ccc(O)c(O)c2)cc1`, the IC90 was greater than 10 µM. Also, the IC50 (HEPG2TOX_HILL_SLOPE 0.402, HEPG2TOX_R_SQUARED 0.786, PBLUC_HILL_SLOPE 2.07, PBLUC_R_SQUARED 0.586, read-out: LUCIFERASE INFECTION ASSAY - IC50) was 3.82 µM.

Regarding `Cc1ccc(S(=O)(=O)N2CCSc3cc(Cl)ccc32)cc1`, the IC90 was 3.49 µM. The concentration for half-maximal inhibition (IC50) (HEPG2TOX_HILL_SLOPE 2.16, HEPG2TOX_R_SQUARED 0.961, PBLUC_HILL_SLOPE 19.3, PBLUC_R_SQUARED 0.449, read-out: LUCIFERASE INFECTION ASSAY - IC50) came to 3.12 µM.

Take `COc1ccc2ccccc2c1/C=N/n1c(-c2ccc(Br)s2)cs/c1=N\c1ccc(Cl)cc1`: the IC90 is greater than 10 µM. Besides, where the note is “PBLUC_HILL_SLOPE 0.354, PBLUC_R_SQUARED 0.256, read-out: LUCIFERASE INFECTION ASSAY - IC50”, the half-maximal inhibitory concentration (IC50) was greater than 10 µM.

Turning to `CCCCCCN(C(=O)COC(=O)c1c(C)[nH]c(C2CC2)nc1=O)c1nc(-c2ccccc2)cs1`, the IC90 was found to be 4.6 µM. Also, the concentration for half-maximal inhibition (IC50) (PBLUC_HILL_SLOPE 8.31, PBLUC_R_SQUARED 0.597, read-out: LUCIFERASE INFECTION ASSAY - IC50) was 3.53 µM.

For `O=c1cc(CSc2nc3ccccc3c(=O)n2Cc2ccccc2)c2cc(O)c(O)cc2o1`, the concentration for an effect of 90% (IC90) is greater than 10 µM. Also, the concentration for half-maximal inhibition (IC50) (FFLUC_HILL_SLOPE 22, FFLUC_R_SQUARED 0.332, read-out: LUCIFERASE INFECTION ASSAY - IC50) was greater than 10 µM.

For `CC(C)Cn1c(-c2cc([N+](=O)[O-])ccc2Cl)nc2c1c(=O)[nH]c(=O)n2Cc1ccccc1`, the IC90 is greater than 10 µM. Moreover, the IC50 under setting [1] was greater than 10 µM.

`CCOc1cc(/C=C2\COc3ccccc3C2=O)ccc1OCC(=O)N(C)C`: the IC90 was greater than 10 µM. In addition, the IC50 under setting [1] was greater than 10 µM.

On to `COC(=O)c1c(C)[nH]c(C(=O)C(C)OC(=O)Cn2c(C(F)(F)F)nc3ccccc32)c1C` (stereo unspecified), for which the IC90 is greater than 10 µM. In addition, the IC50 (HEPG2TOX_HILL_SLOPE 1.23, HEPG2TOX_R_SQUARED 0.914, read-out: LUCIFERASE INFECTION ASSAY - IC50) was greater than 10 µM.

For the molecule `CCN(CC)CCn1c(NC(=O)c2cc3c(C)nn(-c4ccc(Cl)cc4)c3s2)nc2ccccc21`, the IC90 was greater than 10 µM. Under setting [1], the IC50 is greater than 10 µM.

Regarding `CC1CC1c1ccc(/C=C/C(=O)NNC(=S)NCC2CCCO2)o1` (stereo unspecified), the 90% effect concentration (IC90) was 3.79 µM. The IC50 (HEPG2TOX_HILL_SLOPE 2.34, HEPG2TOX_R_SQUARED 0.989, PBLUC_HILL_SLOPE 14.4, PBLUC_R_SQUARED 0.432, read-out: LUCIFERASE INFECTION ASSAY - IC50) was 3.25 µM.

Turning to `CC1CC(=O)C2C(=Nc3ccccc3SC2c2ccc(F)cc2)C1` (stereo unspecified), the concentration for an effect of 90% (IC90) is greater than 9.72 µM. The IC50 (FFLUC_HILL_SLOPE 40.6, FFLUC_R_SQUARED 0.352, PBLUC_HILL_SLOPE 4.94, PBLUC_R_SQUARED 0.608, read-out: LUCIFERASE INFECTION ASSAY - IC50) turned out to be 7.03 µM.

As for `O=[N+]([O-])c1cc(C(F)(F)F)ccc1Sc1nnc(-c2cc(Cl)cc(Cl)c2)[nH]1`, the IC90 came to 7.2 µM. Moreover, the IC50 (HEPG2TOX_HILL_SLOPE 11.8, HEPG2TOX_R_SQUARED 0.697, PBLUC_HILL_SLOPE 13.2, PBLUC_R_SQUARED 0.063, read-out: LUCIFERASE INFECTION ASSAY - IC50) was found to be 6.09 µM.

As for `CCN(Cc1ccc2c(c1)OCO2)C(=O)/C=C/c1c(C)nc2sc(C)cn12`, the IC90 was greater than 10 µM. For the same molecule, the half-inhibitory concentration (IC50) (PBLUC_HILL_SLOPE 2.08, PBLUC_R_SQUARED 0.691, read-out: LUCIFERASE INFECTION ASSAY - IC50) came to 8.61 µM.

In the case of `COc1cccc(-c2cn3c(-c4ccccc4Cl)cnc3cn2)c1F`, the concentration for an effect of 90% (IC90) was determined as 6.25 µM. Besides, the IC50 (PBLUC_HILL_SLOPE 4, PBLUC_R_SQUARED 0.571, read-out: LUCIFERASE INFECTION ASSAY - IC50) amounted to 3.61 µM.

As for `COC(=O)c1c(NC(=O)c2cccnc2)c2cc(NCC(C)C)cnc2n1CC(C)C`, the IC90 was greater than 7.79 µM. In addition, the half-inhibitory concentration (IC50) under setting [1] was greater than 7.79 µM.

For `Cc1ccccc1OCC(O)CN(CC(C)C)CC(C)C` (stereo unspecified), the 90% effect concentration (IC90) is greater than 10 µM. For the same molecule, the IC50 (PBLUC_HILL_SLOPE 6.96, PBLUC_R_SQUARED 0.782, read-out: LUCIFERASE INFECTION ASSAY - IC50) is 8.86 µM.

As to `CC(C)(C)c1cc(-c2csc(CS(=O)(=O)Cc3cccc(C(F)(F)F)c3)n2)cc(C(C)(C)C)c1O`, the concentration for an effect of 90% (IC90) is greater than 6.28 µM. Moreover, the concentration for half-maximal inhibition (IC50) (FFLUC_HILL_SLOPE 261, FFLUC_R_SQUARED 0.0541, PBLUC_HILL_SLOPE 0.448, PBLUC_R_SQUARED 0.195, read-out: LUCIFERASE INFECTION ASSAY - IC50) was greater than 6.28 µM.

On to `Cc1cc(CSc2ccccc2C(=O)NNC(=O)c2ccccc2O)on1`, for which the IC90 was greater than 10 µM. Further, where the note is “PBLUC_HILL_SLOPE 2.63, PBLUC_R_SQUARED 0.786, read-out: LUCIFERASE INFECTION ASSAY - IC50”, the IC50 is 7.42 µM.

For `CC(NC(=O)CN1CCCc2c(F)cc(F)cc21)c1ccco1` (stereo unspecified), the concentration for an effect of 90% (IC90) is greater than 10 µM. The IC50 under setting [1] was greater than 10 µM.

For the molecule `CN1C(=O)N(CCCc2ccncc2)C(=O)C12CCN(Cc1cc3ccccc3[nH]1)CC2`, the 90% effect concentration (IC90) was greater than 7.65 µM. For the same molecule, the IC50 (HEPG2TOX_HILL_SLOPE 1.79, HEPG2TOX_R_SQUARED 0.954, PBLUC_HILL_SLOPE 8.39, PBLUC_R_SQUARED 0.134, read-out: LUCIFERASE INFECTION ASSAY - IC50) was 6.78 µM.

With `CNc1cc(CSCc2ccc(Cl)cc2)nc(-c2ccccc2)n1`, the IC90 is greater than 9.27 µM. Also, under setting [1], the half-inhibitory concentration (IC50) is greater than 9.27 µM.

`Cc1nn(-c2ccccc2)c2nc(-c3cccs3)cc(C(=O)Nc3cc(Cl)ccc3N3CCN(C)CC3)c12`: the IC90 was found to be 9.44 µM. Besides, for the setting “PBLUC_HILL_SLOPE 12, PBLUC_R_SQUARED 0.52, read-out: LUCIFERASE INFECTION ASSAY - IC50”, the IC50 was found to be 7.85 µM.

For the molecule `Cc1csc(NC(=O)c2cc(C3CC3)n[nH]2)n1`, the 90% effect concentration (IC90) was greater than 10 µM. Where the note is “FFLUC_HILL_SLOPE 1.65, FFLUC_R_SQUARED 0.902, read-out: LUCIFERASE INFECTION ASSAY - IC50”, the IC50 was greater than 10 µM.

In the case of `COC(=O)C1=C(Nc2ccc(OC(=O)Nc3cccc(Cl)c3)cc2)CSC1`, the 90% effect concentration (IC90) is greater than 8.15 µM. In addition, the half-maximal inhibitory concentration (IC50) (FFLUC_HILL_SLOPE 18, FFLUC_R_SQUARED 0.412, read-out: LUCIFERASE INFECTION ASSAY - IC50) is greater than 8.15 µM.

`c1ccc(-n2c(SCc3nc(-c4cccs4)no3)nnc2-c2ccc3c(c2)OCO3)cc1`: the 90% effect concentration (IC90) was determined as 6.69 µM. Further, the concentration for half-maximal inhibition (IC50) (HEPG2TOX_HILL_SLOPE 1.25, HEPG2TOX_R_SQUARED 0.965, PBLUC_HILL_SLOPE 1.25, PBLUC_R_SQUARED 0.656, read-out: LUCIFERASE INFECTION ASSAY - IC50) was found to be 1.15 µM.

As to `CNC(=O)c1cccc(NC(=O)c2cc(-c3ccco3)nc3c2cnn3C(C)C)c1`, the concentration for an effect of 90% (IC90) was greater than 10 µM. For the same molecule, under setting [1], the IC50 is greater than 10 µM.

For `COc1ccc2nc(N(Cc3ccccc3)C(=O)C3Cc4ccccc4C(=O)O3)sc2c1` (stereo unspecified), the 90% effect concentration (IC90) was greater than 10 µM. Besides, the IC50 under setting [1] is greater than 10 µM.

For `Cn1c(C(=O)N2CCN(C(c3ccccc3)c3ccccc3)CC2)cc2c(=O)n3ccccc3nc21`, the IC90 is greater than 10 µM. For the same molecule, the IC50 under setting [1] was greater than 10 µM.

`CC(C)C(Nc1ccc(C(F)(F)F)cc1Cl)C(=O)Nc1nc(-c2ccc(F)cc2)cs1` (stereo unspecified): the 90% effect concentration (IC90) was found to be 5.28 µM. In addition, the IC50 (HEPG2TOX_HILL_SLOPE 19.1, HEPG2TOX_R_SQUARED 0.637, PBLUC_HILL_SLOPE 12.2, PBLUC_R_SQUARED 0.325, read-out: LUCIFERASE INFECTION ASSAY - IC50) was 4.41 µM.

As to `CCc1nnc(S)n1/N=C/c1c(C)nn(-c2ccccc2)c1Cl`, the 90% effect concentration (IC90) worked out at 0.704 µM. Further, under “HEPG2TOX_HILL_SLOPE 1.03, HEPG2TOX_R_SQUARED 0.933, PBLUC_HILL_SLOPE 1.45, PBLUC_R_SQUARED 0.745, read-out: LUCIFERASE INFECTION ASSAY - IC50”, the IC50 was 0.155 µM.

In the case of `Cc1ccc(Nc2cc(C)nc3c(-c4ccccc4)cnn23)cc1`, the IC90 is greater than 10.5 µM. Further, the IC50 (FFLUC_HILL_SLOPE 0.324, FFLUC_R_SQUARED 0.749, HEPG2TOX_HILL_SLOPE 3.12, HEPG2TOX_R_SQUARED 0.973, read-out: LUCIFERASE INFECTION ASSAY - IC50) was greater than 10.5 µM.

Take `Cc1cc(=O)nc(N/N=C/c2cc(C)n(-c3ccccc3Cl)c2C)[nH]1`: the IC90 is greater than 10 µM. Further, the IC50 (PBLUC_HILL_SLOPE 2.91, PBLUC_R_SQUARED 0.512, read-out: LUCIFERASE INFECTION ASSAY - IC50) stood at 9.21 µM.

For the molecule `CN1CCN(c2ccc(-c3cn4c(-c5ccccc5)cnc4cn3)cn2)CC1`, the IC90 is 7.71 µM. In addition, the IC50 (PBLUC_HILL_SLOPE 3.35, PBLUC_R_SQUARED 0.57, read-out: LUCIFERASE INFECTION ASSAY - IC50) worked out at 4 µM.

Take `O=C(CCc1nc2ccccc2n(CCc2ccccc2)c1=O)N1CCC1`: the IC90 is greater than 10 µM. Also, under setting [1], the IC50 was greater than 10 µM.

Usually IC50 stands for the concentration that inhibits the measured activity by half. Broadly, the IC90 is the concentration needed for an effect of 90%.
